This note sets out measurements from ChEMBL document CHEMBL1201862, “PubChem BioAssay data set” (2004).

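Values below derive from 48-hour exposures of cells grown in 96-well plates, with endpoints linearly interpolated between the two concentrations bracketing the appropriate inhibition level. GI50 marks 50% less growth.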 Calls of active or inactive are those of the source. Cut-off read from the data, not from the text of the source: active = GI50 up to about 1.1 µM and inactive = higher. Where only a bound is given, the exact number is not on record here.

Some test systems named below: SK-MEL-5; Hs-578T; HCT-15; NCI-H460; NCI-H23; UO-31; Malme-3M; SN12C; SNB-19; EKVX; OVCAR-3; TK-10; CCRF-CEM; HOP-62; MDA-N; T47D; SW-620; 786-0; RXF 393.
Experiment in all cases: NCI-60 cell line screen, 48 h

Take `CN1CC(c2ccccc2)=CC2=C1C=CC(=N)/C2=N\N`: the GI50 in the assay with SK-MEL-5 was > 100 µM (inactive); in the assay on Hs-578T, 35.3 µM (inactive); in the assay on HCT-15, > 100 µM; in the assay with NCI-H460, > 100 µM (inactive); with NCI-H23, > 100 µM (inactive); in the assay with UO-31 it was > 100 µM (inactive). Moreover, the GI50 was 42.3 µM (inactive) in the assay on Malme-3M; > 100 µM (inactive) in the assay with SN12C; 86.9 µM (inactive) in the assay with SNB-19; > 100 µM (inactive) in the assay on EKVX; > 100 µM (inactive) in the assay on OVCAR-3; > 100 µM (inactive) in the assay on TK-10. Further, the GI50 was > 100 µM (inactive) in the assay on CCRF-CEM; 71.8 µM (inactive) in the assay on HOP-62; > 100 µM (inactive) in the assay with MDA-N; > 100 µM (inactive) with T47D; > 100 µM (inactive) with SW-620; > 100 µM (inactive) in the assay with 786-0.
As to `COc1ccc2c(c1)NC1(CCN(CCCC(=O)c3ccc(F)cc3)CC1)N=N2`, the GI50 is 12.6 µM (inactive) in the assay on SK-MEL-5; 20.8 µM with HCT-15; 26.1 µM (inactive) in the assay with NCI-H460; 25.8 µM (inactive) in the assay with NCI-H23; 18 µM (inactive) with UO-31; 15.2 µM (inactive) with Malme-3M. The GI50 was 21 µM (inactive) in the assay with SN12C; 35.3 µM (inactive) with SNB-19; 32.2 µM (inactive) in the assay on EKVX; 23.3 µM (inactive) in the assay on OVCAR-3; 20.7 µM (inactive) with TK-10; 20 µM (inactive) with CCRF-CEM. The GI50 is 16.6 µM (inactive) in the assay with RXF 393; 24.7 µM (inactive) in the assay with HOP-62; 17.7 µM (inactive) with MDA-N; 22.2 µM (inactive) in the assay with T47D; 23.8 µM (inactive) with SW-620; 19.3 µM (inactive) in the assay with 786-0.
Consider `N=c1nc(N)nc(N)n1-c1ccc(S(N)(=O)=O)cc1`, for which the GI50 in the assay on SK-MEL-5 was > 100 µM (inactive); in the assay on HCT-15, > 100 µM; in the assay with NCI-H460 it was > 100 µM (inactive); with NCI-H23 it was > 100 µM (inactive); in the assay with UO-31, > 100 µM (inactive); in the assay on Malme-3M, > 100 µM (inactive). The GI50 in the assay on SN12C, in the assay on SNB-19, with EKVX, with OVCAR-3, in the assay with TK-10 and with CCRF-CEM was > 100 µM (inactive) throughout. Moreover, the GI50 in the assay with RXF 393, with HOP-62, with MDA-N, with T47D, in the assay with SW-620 and with 786-0 was > 100 µM (inactive) in each case.
With `CCCC1C(C#N)(C#N)C(C#N)=C(N)C1(C)C(C)=O` (stereo not given), the GI50 in the assay with SK-MEL-5 was 65.2 µM (inactive); with Hs-578T, > 100 µM (inactive); in the assay on HCT-15, 29.2 µM; in the assay with NCI-H23 it was > 100 µM (inactive); with UO-31, > 100 µM (inactive); in the assay on Malme-3M, 77.1 µM (inactive). For the same compound, the GI50 in the assay with SN12C was > 100 µM (inactive); in the assay on SNB-19, > 100 µM (inactive); with EKVX, > 100 µM (inactive); in the assay with TK-10, > 100 µM (inactive); with CCRF-CEM, > 100 µM (inactive); in the assay with RXF 393, 71 µM (inactive). Further, the GI50 in the assay on MDA-N was 42.7 µM (inactive); in the assay with T47D, 59 µM (inactive); in the assay with SW-620, > 100 µM (inactive); in the assay with 786-0 it was 53.3 µM (inactive).
